Test results reported in patent US12325726B2, “Organic compounds” (priority 2018, dated 2025).
pIC50: −log10 of the molar value. Like-named read-outs stand apart in the source and are kept apart here.

Key:
[1] = In vivo mouse pharmacokinetics, paired oral co-dosing, plasma and brain; parameters: species or system mice; conditions: 10 mg/kg po co-dosed; for AUC: 0.25-6 hr sampling
Procedure: In a first study, the compounds of Examples 2 to 6 are compared to the Compound of Formula A (Example 1) using standard procedures in mice. In each test, two compounds are co-dosed in a single animal and the relative pharmacokinetics in plasma and brain is determined. Each test compound is dissolved in polyethylene glycol 400 vehicle, and administered orally at a dose of 10 mg/kg. After single dose oral administration of the test compounds together, plasma and brain levels are measured at 0.25, 0.5, 1, 2, 4, and 6 hours post-dosing. The mean values for maximum concentration, time to maximum concentration, and Area Under the Curve (AUC) for both compounds are determined. The results are summarized in the tables below for various paired co-dosing experiments: […]

rat = test: Rotorod test (sedative/hypnotic activity, duration of action); type: in vivo
Procedure: (§1) In vitro potency [ability to inhibit the binding of [^35S]-tert-butylbicyclophosphorothionate (TBPS)], rotorod TD50's (dose at which half of animals tested fail to stay on a rotating rod for 1 minute) and the length of time before animals tested are able to pass rotorod test (duration of action) of 3α-Hydroxy-21-(1′-imidazolyl)-3β-methoxymethyl-5α-pregnan-20-one is determined. These methods for measuring in vitro and in vivo activity of compounds of the invention are fully described in U.S. Pat. No. 5,232,917, incorporated herein by reference in its entirety. The TBPS assay gives the in vitro potency of compounds whereas the rotorod assay estimates the sedative/hypnotic activity of compounds. Since the duration of action of a compound is dependent on the dose and will be prolonged at higher doses, the duration of action is measured at the lowest dose at which all of the animals failed the rotorod test. IC50 is the dose of steroid inhibiting 50% of specific binding of [^35S]-tert-butylbicyclophorothionate (TBPS). Rotorod TD50 is the does at which half of animals fail the rotorod test in rat. Duration of action, measured at the lowest dose where all animals failed the rotorod test, is the time required for all animals tested to once again pass the rotorod test.

human hepatocyte = test: In vitro human hepatocyte stability assay; type: in vitro ADME; conditions: human hepatocytes
Procedure: The compounds of Examples 1, 2, 5 and 6 are compared in a standard in vitro human hepatocyte stability assay run in duplicate. Compounds are provided as 1 M solutions in DMSO, and concentration of test compound is determined at 0.5, 1.0 and 4.0 hours after addition of the test compound. Results are shown below as a percentage of initial concentration.

GABAA receptor = test: [35S]-TBPS binding inhibition (in vitro potency); conditions: inhibition of specific binding of [35S]-TBPS
Procedure: as §1

[2] = cited from earlier work
[3] = brain, read-out: Brain concentration
[4] = plasma, read-out: Plasma concentration

COC[C@@]1(O)CC[C@@]2(C)[C@@H](CC[C@@H]3[C@@H]2CC[C@]2(C)[C@@H](C(=O)Cn4ccnc4)CC[C@@H]32)C1 [Example 1, 3α-Hydroxy-21-(1′-imidazolyl)-3β-methoxymethyl-5α-pregnan-20-one]
Cmax ([1]; brain): 2880 ng/g | Tmax ([1]; brain): 1 h | AUC ([1]; brain): 14200 ng·h/mL | concentration at 0.25 hr [1, 3]: 2280 ng/g | concentration at 0.5 hr [1, 3]: 2230 ng/g | concentration at 1 hr [1, 3]: 2880 ng/g | concentration at 2 hr [1, 3]: 2520 ng/g | concentration at 4 hr [1, 3]: 2360 ng/g | concentration at 6 hr [1, 3]: 2090 ng/g | Kp ([1]; brain/plasma, read-out: B/P AUC Ratio): 1.2 | Cmax ([1]; plasma): 2580 ng/mL | Tmax ([1]; plasma): 1 h | AUC ([1]; plasma): 11700 ng·h/mL | concentration at 0.25 hr [1, 4]: 2270 ng/mL | concentration at 0.5 hr [1, 4]: 1820 ng/mL | concentration at 1 hr [1, 4]: 2580 ng/mL | concentration at 2 hr [1, 4]: 2100 ng/mL | concentration at 4 hr [1, 4]: 1840 ng/mL | concentration at 6 hr [1, 4]: 1750 ng/mL | TD50 (rat; Rattus norvegicus, po, read-out: rotorod TD50 (po)): 28 mg/kg | duration of action (rat; at lowest dose where all animals failed the rotorod test, time until all pass again): 140 min | percentage of initial concentration (human hepatocyte; 0 hr): 100% | percentage of initial concentration (human hepatocyte; 0.5 hr): 94% | percentage of initial concentration (human hepatocyte; 1.0 hr): 90% | percentage of initial concentration (human hepatocyte; 4.0 hr): 78% | pIC50 (GABAA receptor): 6.86 | AUC (0-24) ([2]; human, oral 1 mg fasted, mean): 16.9 ng·h/mL | AUC (0-last) ([2]; human, oral 1 mg fasted, mean): 22.4 ng·h/mL | Cmax ([2]; human, oral 1 mg fasted, mean): 1.3 ng/mL | T1/2 ([2]; human, oral 1 mg fasted, mean): 13.8 h | Tmax ([2]; human, oral 1 mg fasted, mean): 3.1 h | AUC (0-24) ([2]; human, oral 3 mg fasted, mean): 54.6 ng·h/mL | AUC (0-last) ([2]; human, oral 3 mg fasted, mean): 65.6 ng·h/mL | Cmax ([2]; human, oral 3 mg fasted, mean): 5.7 ng/mL | T1/2 ([2]; human, oral 3 mg fasted, mean): 8.8 h | Tmax ([2]; human, oral 3 mg fasted, mean): 2.8 h | AUC (0-24) ([2]; human, oral 10 mg fasted, mean): 213 ng·h/mL | AUC (0-last) ([2]; human, oral 10 mg fasted, mean): 254 ng·h/mL | Cmax ([2]; human, oral 10 mg fasted, mean): 26.5 ng/mL | T1/2 ([2]; human, oral 10 mg fasted, mean): 13.1 h | Tmax ([2]; human, oral 10 mg fasted, mean): 1.7 h | AUC (0-24) ([2]; human, oral 30 mg fasted, mean): 952 ng·h/mL | AUC (0-last) ([2]; human, oral 30 mg fasted, mean): 1117 ng·h/mL | Cmax ([2]; human, oral 30 mg fasted, mean): 120 ng/mL | T1/2 ([2]; human, oral 30 mg fasted, mean): 13.1 h | Tmax ([2]; human, oral 30 mg fasted, mean): 2.1 h | AUC (0-24) ([2]; human, oral 60 mg fasted, mean): 2330 ng·h/mL | AUC (0-last) ([2]; human, oral 60 mg fasted, mean): 2608 ng·h/mL | Cmax ([2]; human, oral 60 mg fasted, mean): 330 ng/mL | T1/2 ([2]; human, oral 60 mg fasted, mean): 12.5 h | Tmax ([2]; human, oral 60 mg fasted, mean): 1.8 h | T1/2 ([2]; humans, oral dosing, average across five dosing groups): approximately 12 hours
